According to patent US20150274787A1, “METHOD FOR RECOMBINANT PRODUCTION OF LABYRINTHOPEPTINS AND FUNCTIONAL DERIVATIVES THEREOF” (priority 2011, published 2015):
*1 amine or outer side, *2 acyl side, *3 side chain or, on linkers, in order; H or OH if unused. Where a SMILES comes first, the peptide text is derived from it. Bridges are numbered along the chain shown (N, C = ends). Where no end group is shown, it is not given here. [ ]: non-standard residue; d: D form. The star is where a group is joined. X1 = NC1=N[C@@H]([C@H](N[*:1])C(=O)[*:2])C[C@H](O)N1; ΔAla(Z-3-ureido) = NC(=O)N/C=C(\N)C(=O)O; β3hOrn = NCCC[C@H](N)CC(=O)*; Dap = NC[C@H](N)C(=O)O

Legend:
[1] = molecular target: T1, human P2X4 receptor (Homo sapiens, UniProt Q99571); assay: IC50 determination by patch clamp on hP2X4_HEK-FITR cell line (in vitro anti-pain assay); type: cell-based; conditions: recombinant human P2X4 in HEK cells, 10 μM ATP, holding potential −60 mV, 0.3 to 90 μM
T1 construct: expressed in transfected cells; host or cells: HEK cells (hP2X4_HEK-FITR), expression induced with doxycyclin
T1 sequence (Q99571 1-388): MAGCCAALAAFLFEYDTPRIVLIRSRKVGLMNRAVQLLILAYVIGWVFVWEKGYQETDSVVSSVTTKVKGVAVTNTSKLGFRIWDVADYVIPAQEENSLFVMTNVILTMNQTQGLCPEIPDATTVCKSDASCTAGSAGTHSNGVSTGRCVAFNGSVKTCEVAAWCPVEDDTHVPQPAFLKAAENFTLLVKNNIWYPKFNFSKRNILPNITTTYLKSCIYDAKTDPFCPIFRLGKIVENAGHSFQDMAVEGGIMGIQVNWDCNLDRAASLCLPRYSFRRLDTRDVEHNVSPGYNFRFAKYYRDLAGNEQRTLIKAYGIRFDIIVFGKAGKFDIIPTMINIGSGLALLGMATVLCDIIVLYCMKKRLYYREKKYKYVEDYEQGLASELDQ
Excerpt: Evaluation of anti-pain activity of labyrinthopeptin A2 and its structural analogs LabA2_L14A and LabA2 F15A in an in vitro assay (IC50 determination of LabA2, LabA2_L14A and LabA2_F15A on hP2X4_HEK-FITR-cell line) The use of labyrinthopeptin A2 and its derivatives, in particular LabA2_L14A and LabA2_F15A, as analgesics was investigated for neuropathic pain based on their inhibitory effects on P2X4 receptors (Nagata K et al., 2009).
Recombinant human P2X4 receptor was expressed in HEK cells (hP2X4_HEK-FITR). hP2X4 expression was induced with doxycyclin 1 μg/ml for 24 h to 48 h. The patch clamp experiment has been performed under standard conditions using an axopatch-200B amplifier and pClamp v10 acquisition software (Axon Instruments Inc, Foster City, Calif., USA). Cells were continuously superfused with an external solution consisting of (in mM) 130 CsCl, 4 NaCl, 1 MgCl2, 1 CaCl2, 10 EGTA (free Ca^2+=6.7 nM) and 10 HEPES (pH 7.4 with CsOH). This was replaced with a […] external solution consisting of (in mM) 145 NaCl, 4 KCl, 2 CaCl2, 1 MgCl2 and 10 HEPES (pH 7.4 with NaOH). 250 ms application of 10 μM ATP (Sigma) every 10 sec was performed. […] Currents were measured at a holding potential of −60 mV.
Results were calculated using Origin7.5 software (FIG. 27).

[2] = system: A. namibiensis; assay: Testing selection markers (antibiotic resistance) suitable for genetic manipulations of A. namibiensis; for Growth after 4 days: key: −: no growth; +: slight growth; ++: medium growth; +++: strong growth; for Growth after 7 days: key: −: no growth; +: slight growth; ++: medium growth; +++: strong growth; type: cell-based, Actinomadura namibiensis; conditions: for Growth after 4 days / Growth after 7 days: A. namibiensis
Method: An apramycin resistance gene was used as selectable marker for vectors used in this study because from all eight tested antibiotics A. namibiensis was […] to apramycin (50 μg/ml). Initially for establishing a way in which DNA can be introduced into A. namibiensis the typical cloning vectors for Streptomyces strains were used. Plasmid pUWLoriT which can replicate autonomously in Streptomyces and plasmid pSET152 which can integrate site-specifically at the bacteriophage ΦC31 attachment site (18) (7) were used. […] Although Actinomaduras and Streptomyces are related it is still possible that origin of replication (ori) for Streptomyces is not recognized by A. namibiensis (9). Description of similar difficulties can be found in the literature (17). This led to the use of vectors harboring replicons of Actinomadura strains: pSETermEΔHindIII_oriCLL4, pK18mobXylE_oripCLL4 and pCLL4_ori_apra. Also a non-replicating plasmid pK18mob2 with a fragment coding for the LabKC modifying enzyme was used for transformation of A. namibiensis.

[3] = molecular target: T2, Recombinant human P2X4 receptor (human, UniProt Q99571 1-388); assay: cell-based or functional assay
T2 sequence (looked up): T1 sequence (Q99571 1-388)

Molecule: LabA2_F15A (SDWSLWECCSTGSLAACC)
- IC50 (concentration of a substance that blocks 50% of channels) [1]: could not be determined

Molecule: CN[C@@H]1[C@@H](O[C@H]2O[C@H](CO)[C@@H](N)[C@H](O)[C@H]2O)OC2C[C@@H](N)[C@@H](O[C@H]3[C@H](O)[C@@H](O)[C@H](N)C[C@@H]3N)OC2[C@@H]1O (stereo partly shown) [Apramycin]
- sensitivity of A. namibiensis to antibiotic ([2]; 50 μg/ml): sensitive
- Growth after 4 days ([2]; antibiotic conc. 25 μg/ml): −
- Growth after 7 days ([2]; antibiotic conc. 25 μg/ml): +
- Growth after 4 days ([2]; antibiotic conc. 50 μg/ml): −
- Growth after 7 days ([2]; antibiotic conc. 50 μg/ml): −

Molecule: C[C@@H]1O[C@@H]1P(=O)(O)O [Phosphomycin]
- Growth after 4 days ([2]; antibiotic conc. 400 μg/ml): +++
- Growth after 7 days ([2]; antibiotic conc. 400 μg/ml): +++

Molecule: NCCC[C@H](N)CC(=O)N[C@H]1CNC(=O)[C@H]([C@H]2C[C@H](O)NC(N)=N2)NC(=O)/C(=C/NC(N)=O)NC(=O)[C@H](CO)NC(=O)[C@H](CO)NC1=O [Viomycin] (β3hOrn-[Dap]SS[ΔAla(Z-3-ureido)][X1]; lactam 1-C)
- Growth after 4 days ([2]; antibiotic conc. 30 μg/ml): +
- Growth after 7 days ([2]; antibiotic conc. 30 μg/ml): +

Molecule: C=C(NC(=O)C(=C)NC(=O)c1csc(C2=N[C@@H]3c4csc(n4)[C@H]4NC(=O)c5csc(n5)[C@H]([C@](C)(O)[C@@H](C)O)NC(=O)[C@H]5CSC(=N5)/C(=C/C)NC(=O)[C@H]([C@@H](C)O)NC(=O)c5csc(n5)[C@]3(CC2)NC(=O)[C@H](C)NC(=O)C(=C)NC(=O)[C@H](C)NC(=O)[C@H]([C@@H](C)CC)N[C@@H]2C=Cc3c([C@H](C)O)cc(nc3[C@H]2O)C(=O)O[C@@H]4C)n1)C(N)=O [Thiostrepton]
- Growth after 4 days ([2]; antibiotic conc. 25 μg/ml): −
- Growth after 7 days ([2]; antibiotic conc. 25 μg/ml): +
- sensitivity of A. namibiensis to antibiotic ([2]; concentration not given): not sensitive

Molecule: CN[C@@H]1[C@H](O)[C@H](NC)[C@H]2O[C@@]3(O)C(=O)C[C@@H](C)O[C@H]3O[C@@H]2[C@H]1O [Spectinomycin]
- Growth after 4 days ([2]; antibiotic conc. 100 μg/ml): +++
- Growth after 7 days ([2]; antibiotic conc. 100 μg/ml): +++

Molecule: NC[C@H]1O[C@H](O[C@H]2[C@H](O)[C@@H](O[C@H]3O[C@H](CO)[C@@H](O)[C@H](N)[C@H]3O)[C@H](N)C[C@@H]2N)[C@H](O)[C@@H](O)[C@@H]1O [Kanamycin]
- Growth after 4 days ([2]; antibiotic conc. 50 μg/ml): +++
- Growth after 7 days ([2]; antibiotic conc. 50 μg/ml): +++

Molecule: [H]/N=C(/N)N[C@H]1[C@H](O)[C@@H](O)[C@H](O[C@@H]2O[C@@H](C)[C@](O)(C=O)[C@H]2O[C@@H]2O[C@@H](CO)[C@H](O)[C@@H](O)[C@@H]2NC)[C@@H](N/C(N)=N\[H])[C@@H]1O [Streptomycin]
- Growth after 4 days ([2]; antibiotic conc. 30 μg/ml): +
- Growth after 7 days ([2]; antibiotic conc. 30 μg/ml): ++

Molecule: Hydromycin
- Growth after 4 days ([2]; antibiotic conc. 50 μg/ml): ++
- Growth after 7 days ([2]; antibiotic conc. 50 μg/ml): +++

B1: LabA2_L14A (peptide)
peptide: SDWSLWECCSTGSAFACC
modifications: thioether (positions not given here); not fully specified (residues 1, 4, 10, 13, bridges); also: labionin residues as in LabA2: methylene bridges between alpha-C atoms, places not given here
- IC50 of inhibition of ATP-evoked currents (patch clamp, hP2X4_HEK-FITR cells) [3]: 30 µM
